Marks after values point to notes of the source that are not given here.
Legend:
Type in all cases: cell-based
[1] = system: c-Src mRNA in RAW264.7 cells; assay: RT-PCR, RANKL-induced mRNA expression of c-Src; conditions: for RANKL-induced mRNA expression level of c-Src: RAW264.7 cells, 24 hours, CTL 100%, mean ± SEM
Description: (§1) The culture medium was discarded. […] [table] f) Running • A.

[2] = system: Cathepsin K mRNA in RAW264.7 cells; assay: RT-PCR, RANKL-induced mRNA expression of Cathepsin K; conditions: for RANKL-induced mRNA expression level of Cathepsin K: RAW264.7 cells, 24 hours, CTL 100%, mean ± SEM
Description: as §1

[3] = system: RAW264.7 cells stimulated by RANKL; assay: TRAP stain, differentiation into multinuclear osteoclast-like cells; conditions: 10 ng/ml RANKL for 5 days, FIG. 3
Method: 10^3 cells were plated per well in 96-well plates. […] PBS, 50 μl/well fluid was left. […] 50 μl/well fluid was left, and then Substrate 200 μl/well was added to react for 15 minutes in room temperature. After the cells were stained in red, the cells were washed by ddH2O. At last, the cells were observed and taken pictures by an optical microscopy (40× and 200×), and Autopano Pro V1.4.2, Kolor, Paris, was used to proceed the pictures taken in 40×. Then, the number of the osteoclasts with at least three nuclei was counted and compared with the control group. […] Fixative solution: Citrate solution 25 ml, Acetone 65 ml, 37% Formaldehyde 8 ml. Stored in dark in 4° C. • 2. Citrate solution: 18 mM citric acid, 9 mM sodium citrate, and 12 mM NaCl were solved in 100 ml water, pH 3.6, and then 0.001% Triton X-100 was added at last. • 3. Substrate: 2 mg AS-MX (Naphthol As-Mx-phosphate disodium) and 6 mg Fast Red Violet LB were solved in 1 M Sodium tartrate acetone (0.1 M, pH 5) and 0.1 M, 19 ml sodium acetate.

[4] = system: p65 in the cell nucleus of RAW264.7 cells; assay: Western blot, amount of p65 in nuclei induced by RANKL; conditions: KMUP-1 in advance 24 hours, RANKL 30 minutes, FIG. 8(B)
Method: IκBα which originally binds with NF-κB to inhibit its activity in cytoplasm is stimulated by RANKL to be phosphorylized and be hydrolyzed after separating from NF-κB. Then, the free NF-κB transfers into a cell nucleus to play a role as a transcription factor. According to the experimental result, compared with the control group, in the group induced by RANKL for 30 minutes, the IκBα in the cytoplasm is obviously phosphorylized and hydrolyzed. […] According to the result, KMUP-1 can inhibit NF-κB activation induced by RANKL. Nuclear proteins were extracted according to the instructions of NE-PER kit. 2.5×10^6 cells were plated per well in 24-well plates. […] Subsequently, the cells were added by 5.5 μ[…] and shaken for 5 seconds and then put on ice for 1 minute. After that, the cells were shaken again for 5 seconds and centrifuged (10,000 rpm, 4° C., 5 minutes). Cytoplasm and Nuclei could be separated by this process, and the supernatant was cytoplasmic proteins, and the pallet was nuclei. The supernatant was stored in an eppendorf in -80° C. b) Extraction of Nuclear Proteins The nuclear pallet was added by 500 μl PBS and centrifuged (10,000 rpm, 4° C., 5 minutes), and the supernatant was discarded. The pallet could be washed by this process and prevented contamination. […]

[5] = system: MMP-9 protein in RAW264.7 cells; assay: Western blot, amount of MMP-9 protein induced by RANKL; conditions: RANKL 24 hours, FIG. 19
Method: KMUP-1 influences there major up-stream signal transduction pathways which are related to RANK/RANKL. Western blot is used to estimate the amount of matrix metalloproteinase (MMP)-2 and MMP-9 which are related to the dissolution of osteoclast-like cells, and the enzyme activity of MMP-2 and MMP-9 are estimated via Gelatin Zymography. […] The proteins were collected by scraping and were centrifuged (13,000 rpm, 4° C., 30 minutes). The supernatant was stored in an eppendorf in −80° C. • c) Concentrations of the proteins were examined by Bio-Red DC Protein Assay. After knowing the concentrations, the proteins were diluted to specific concentrations by adding ddH2O. One forth volume of the diluted proteins of sample buffer was added into the diluted proteins and was put in boiled water for 5 min and then was chilled on ice for 5 minutes. After short time centrifugation, the diluted proteins could be injected into wells of a gel. The gel was run at 100 V for 10 minutes until the proteins were driven to the intersection between a loading gel and a running gel. Then, the voltage was swopped to 200 V for 40 minutes. • d) A PVDF membrane was immersed in Methanol for 2 minutes. After two washes in ddH2O, the membrane was immersed in transfer buffer for 15 minutes. A SDS-PAGE was put on the membrane, and wet paper was flanked them. […]

[6] = 10 ng/ml RANKL, summary of Table 1

## Cn1c(=O)c2c(ncn2CCN2CCN(c3ccccc3Cl)CC2)n(C)c1=O [KMUP-1, 7-[2-[4-(2-Chlorophenyl)piperazin-1-yl]ethyl] theophylline]
[1]; [6]
  effect on mRNA expression of c-Src induced by RANKL (in words): not obviously inhibits
[1]; RANKL 10 ng/ml + KMUP-1 1 μM
  RANKL-induced mRNA expression level of c-Src: 101.4 ± 4.5%
[1]; RANKL 10 ng/ml + KMUP-1 2.5 μM
  RANKL-induced mRNA expression level of c-Src: 103.9 ± 2.7%
[1]; RANKL 10 ng/ml + KMUP-1 5 μM
  RANKL-induced mRNA expression level of c-Src: 95.8 ± 2.8% ^
[1]; RANKL 10 ng/ml + KMUP-1 7.5 μM
  RANKL-induced mRNA expression level of c-Src: 91.5 ± 4.5% ^
[1]; RANKL 10 ng/ml + KMUP-1 10 μM
  RANKL-induced mRNA expression level of c-Src: 98.6 ± 6.2% ^
[2]; [6]
  effect on mRNA expression of Cathepsin K induced by RANKL (in words): not obviously inhibits
[2]; RANKL 10 ng/ml + KMUP-1 1 μM
  RANKL-induced mRNA expression level of Cathepsin K: 304 ± 7.8%
[2]; RANKL 10 ng/ml + KMUP-1 2.5 μM
  RANKL-induced mRNA expression level of Cathepsin K: 305 ± 5.9%
[2]; RANKL 10 ng/ml + KMUP-1 5 μM
  RANKL-induced mRNA expression level of Cathepsin K: 312 ± 6.2%^
[2]; RANKL 10 ng/ml + KMUP-1 7.5 μM
  RANKL-induced mRNA expression level of Cathepsin K: 321.5 ± 10.2% ^
[2]; RANKL 10 ng/ml + KMUP-1 10 μM
  RANKL-induced mRNA expression level of Cathepsin K: 245 ± 8.5% ^b
[3]
  differentiation into multinuclear osteoclast-like cells (TRAP staining): obviously express inhibition phenomenon related to dose
[4]
  amount of p65 in the cell nucleus induced by RANKL: has the inhibiting effect on that p65 enters into a cell nucleus
[5]
  amount of MMP-9 protein induced by RANKL: can efficiently inhibit the amount of MMP-2 and MMP-9 proteins
